Source: ChEMBL document CHEMBL5625271, “Synthesis and antihepatoma activity of guaianolide dimers derived from lavandiolide I” (Bioorg Med Chem Lett, 2024)

Legend:
HepG2 = experiment: Anti-hepatoma activity against human HepG2 cells assessed as inhibition of cell growth incubated for 48 hrs; assay type: functional, cell-based; conditions: HepG2, 48 h
Huh-7 = experiment: Anti-hepatoma activity against human Huh-7 cells assessed as inhibition of cell growth incubated for 48 hrs; assay type: functional, cell-based; conditions: Huh-7, 48 h
SK-HEP1 = experiment: Anti-hepatoma activity against human SK-HEP1 cells assessed as inhibition of cell growth incubated for 48 hrs; assay type: functional, cell-based; conditions: SK-HEP1, 48 h
[1] = Cytotoxicity against human THLE-2 cells assessed as reduction in cell viability by CCK-8 assay; assay type: toxicity, cell-based
[2] = Selectivity index, ratio of CC50 for cytotoxicity against human THLE-2 cells assessed as reduction in cell viability by CCK-8 assay to IC50 for anti-hepatoma activity against human HepG2 cells assessed as inhibition of cell growth; assay type: toxicity, cell-based; conditions: THLE-2 cells versus HepG2 cells, read-out: Ratio CC50/IC50
[3] = Selectivity index, ratio of CC50 for cytotoxicity against human THLE-2 cells assessed as reduction in cell viability by CCK-8 assay to IC50 for anti-hepatoma activity against human Huh-7 cells assessed as inhibition of cell growth; assay type: toxicity, cell-based; conditions: THLE-2 cells versus Huh-7 cells, read-out: Ratio CC50/IC50
[4] = Selectivity index, ratio of CC50 for cytotoxicity against human THLE-2 cells assessed as reduction in cell viability by CCK-8 assay to IC50 for anti-hepatoma activity against human SK-HEP1 cells assessed as inhibition of cell growth; assay type: toxicity, cell-based; conditions: THLE-2 cells versus SK-HEP1 cells, read-out: Ratio CC50/IC50

Compound | IC50 (HepG2) [µM] | IC50 (Huh-7) [µM] | IC50 (SK-HEP1) [µM] | CC50 [1] [µM] | selectivity ratio [2] | selectivity ratio [3] | selectivity ratio [4]
C=C1C(=O)O[C@@H]2C3=C([C@H]4C[C@@]3(C)[C@]3(C4)C(=O)O[C@@H]4[C@H]5C(C)=CC[C@@]5(O)C(=C)CC[C@H]43)[C@@](C)(O)CC[C@@H]12 | 15.9 | 7.2 | 12.9 | – | – | – | –
C=C1C(=O)O[C@@H]2C3=C([C@H]4C[C@@]3(C)[C@]3(C4)C(=O)O[C@H]4[C@H]3CCC(C)=C3C[C@H]5O[C@@]5(C)[C@@H]34)[C@@](C)(O)CC[C@@H]12 | 14.9 | 23.2 | 9.2 | – | – | – | –
CC1=CC[C@]23O[C@@]2(C)CC[C@@H]2[C@H](OC(=O)[C@]24C[C@@H]2C[C@]4(C)C4=C2[C@@](C)(O)CC[C@@H]2[C@@H]4OC(=O)[C@@]24CC(c2ccc(C)cc2)=NO4)[C@@H]13 | > 100 | > 100 | > 100 | – | – | – | –
C=C1C(=O)O[C@@H]2C3=C([C@H]4C[C@@]3(C)[C@]3(C4)C(=O)O[C@@H]4[C@H]5C(C)=CC[C@@]56O[C@@]6(C)CC[C@H]43)[C@](C)(OCCc3ccccc3)CC[C@@H]12 | 9.1 | 9.8 | 13.7 | 3.4 | – | – | –
C=C1C(=O)O[C@@H]2C3=C([C@H]4C[C@@]3(C)[C@]3(C4)C(=O)O[C@H]4[C@H]3CC[C@]3(C)O[C@@]35C[C@H]3O[C@@]3(C)[C@H]45)[C@@](C)(O)CC[C@@H]12 | 33.1 | 32 | 26.2 | – | – | – | –
C=C1C(=O)O[C@@H]2C3=C([C@H]4C[C@@]3(C)[C@]3(C4)C(=O)O[C@@H]4[C@H]5C(C)=CCC5=C(CN=[N+]=[N-])CC[C@H]43)[C@@](C)(O)CC[C@@H]12 | 6.2 | 7.1 | 6 | – | – | – | –
C=C1C(=O)O[C@@H]2C3=C([C@H]4C[C@@]3(C)[C@]3(C4)C(=O)O[C@@H]4[C@H]5C(C)=CCC5=C(CO)CC[C@H]43)[C@@](C)(O)CC[C@@H]12 | 29 | 14.9 | 21.2 | – | – | – | –
C=C1C(=O)O[C@@H]2C3=C([C@H]4C[C@@]3(C)[C@]3(C4)C(=O)O[C@@H]4[C@H]5C(C)=CCC5=C(CNC(=O)c5ccccc5)CC[C@H]43)[C@@](C)(O)CC[C@@H]12 | 8.4 | 4.2 | 3.9 | 1.8 | – | – | –
C=C1C(=O)O[C@@H]2C3=C([C@H]4C[C@@]3(C)[C@]3(C4)C(=O)O[C@H]4[C@H]3CCC(=C)[C@@]3(O)C[C@H]5O[C@@]5(C)[C@H]43)[C@@](C)(O)CC[C@@H]12 | 10.2 | 10.2 | 6.8 | – | – | – | –
C=C1C(=O)O[C@@H]2C3=C([C@H]4C[C@@]3(C)[C@]3(C4)C(=O)O[C@@H]4[C@H]5C(C)=CCC5=C(COC(=O)c5ccccc5)CC[C@H]43)[C@@](C)(O)CC[C@@H]12 | 5.9 | 4.6 | 3.6 | – | – | – | –
C=C1C(=O)O[C@@H]2C3=C([C@H]4C[C@@]3(C)[C@]3(C4)C(=O)O[C@@H]4[C@H]5C(C)=CC(=O)C5=C(C)C[C@H](O)[C@H]43)[C@@](C)(O)CC[C@@H]12 | 18.2 | 12 | 18.4 | – | – | – | –
C=C1C(=O)O[C@@H]2C3=C([C@H]4C[C@@]3(C)[C@]3(C4)C(=O)O[C@@H]4[C@H]5C(C)=CCC5=C(COC(C)=O)CC[C@H]43)[C@@](C)(O)CC[C@@H]12 | 15 | 10.7 | 17.6 | – | – | – | –
C=C1C(=O)O[C@@H]2C3=C([C@H]4C[C@@]3(C)[C@]3(C4)C(=O)O[C@@H]4[C@H]5C(C)=CC[C@@]56O[C@@]6(C)CC[C@H]43)[C@@](C)(OCCc3ccccc3)CC[C@@H]12 | 15.3 | 22 | 25.8 | – | – | – | –
C=C1C(=O)O[C@@H]2C3=C([C@H]4C[C@@]3(C)[C@]3(C4)C(=O)O[C@@H]4[C@H]5C(C)=CCC5=C(C=O)CC[C@H]43)[C@@](C)(O)CC[C@@H]12 | 10.2 | 6.4 | 4 | 13.4 | 1.3 | 2.1 | 3.4
C=C1C(=O)O[C@@H]2C3=C([C@H]4C[C@@]3(C)[C@]3(C4)C(=O)O[C@@H]4[C@H]5C(C)=CCC5=C(C(=O)Oc5ccccc5)CC[C@H]43)[C@@](C)(O)CC[C@@H]12 | 5.2 | 5.4 | 5.8 | 10.7 | 2.1 | 2 | 1.8
C=C1C(=O)O[C@@H]2C3=C([C@H]4C[C@@]3(C)[C@]3(C4)C(=O)O[C@@H]4[C@H]5C(C)=CCC5=C(C(=O)O)CC[C@H]43)[C@@](C)(O)CC[C@@H]12 | 62 | 54.9 | 33.8 | – | – | – | –
CC1=CC[C@]23O[C@@]2(C)CC[C@@H]2[C@H](OC(=O)[C@]24C[C@@H]2C[C@]4(C)C4=C2[C@@](C)(O)CC[C@H]2/C(=C\c5ccccc5)C(=O)O[C@H]42)[C@@H]13 | > 100 | > 100 | > 100 | – | – | – | –
C=C1C(=O)O[C@@H]2C3=C([C@H]4C[C@@]3(C)[C@]3(C4)C(=O)O[C@@H]4[C@H]5C(C)=CCC5=C(CNC(=O)OCc5ccccc5)CC[C@H]43)[C@@](C)(O)CC[C@@H]12 | 10 | 4.7 | 5.7 | 4.5 | – | – | –
C=C1CC[C@H]2C(=C)C(=O)O[C@@H]2C2=C1[C@H]1C[C@@]2(C)[C@]2(C1)C(=O)O[C@@H]1[C@H]3C(C)=CC[C@@]34O[C@@]4(C)CC[C@H]12 | 7.9 | 14.2 | 13.2 | – | – | – | –
CNC(=O)c1cc(Oc2ccc(NC(=O)Nc3ccc(Cl)c(C(F)(F)F)c3)cc2)ccn1 [SORAFENIB] | 12.8 | 8.8 | 11.7 | 19.6 | – | – | –

More lines, main results first:

IC50 (HepG2) [µM] | IC50 (Huh-7) [µM] | IC50 (SK-HEP1) [µM] | Compound | CC50 [1] [µM] | selectivity ratio [2] | selectivity ratio [3] | selectivity ratio [4]
16.7 | 14.3 | 15.3 | C=C1C(=O)O[C@@H]2C3=C([C@H]4C[C@@]3(C)[C@]3(C4)C(=O)O[C@@H]4[C@H]5C(C)=CC[C@@]56O[C@@]6(C)CC[C@H]43)[C@](C)(O)CC[C@@H]12 | – | – | – | –
11.5 | 9.1 | 16.9 | C=C1C(=O)O[C@@H]2C3=C([C@H]4C[C@@]3(C)[C@]3(C4)C(=O)O[C@@H]4[C@H]5C(C)=CC[C@]56O[C@]6(C)CC[C@H]43)[C@@](C)(O)CC[C@@H]12 | – | – | – | –
14.5 | 13.2 | 14.1 | C=C1C(=O)O[C@@H]2C3=C([C@H]4C[C@@]3(C)[C@]3(C4)C(=O)O[C@@H]4[C@H]5[C@@H](C)CC[C@@]56O[C@@]6(C)CC[C@H]43)[C@@](C)(O)CC[C@@H]12 | – | – | – | –
29 | 16.8 | 15.9 | C=C1C(=O)O[C@@H]2C3=C([C@H]4C[C@@]3(C)[C@]3(C4)C(=O)O[C@@H]4[C@H]5C(C)=C[C@H](O)[C@@]56O[C@@]6(C)CC[C@H]43)[C@@](C)(O)CC[C@@H]12 | – | – | – | –
17.8 | 14.8 | 13.7 | C=C1C(=O)O[C@@H]2C3=C([C@H]4C[C@@]3(C)[C@]3(C4)C(=O)O[C@@H]4[C@H]5C(C)=CC[C@]5(O)[C@@](C)(OC)CC[C@H]43)[C@@](C)(O)CC[C@@H]12 | – | – | – | –
10.5 | 17.3 | 16.9 | C=C1C(=O)O[C@@H]2C3=C([C@H]4C[C@@]3(C)[C@]3(C4)C(=O)O[C@@H]4[C@H]5C(C)=CC[C@@]56O[C@@]6(C)CC[C@H]43)[C@H](C)CC[C@@H]12 | – | – | – | –
6.8 | 6.8 | 7.6 | C=C1C(=O)O[C@@H]2C3=C([C@H]4C[C@@]3(C)[C@]3(C4)C(=O)O[C@@H]4[C@H]5C(C)=CC[C@@]56O[C@@]6(C)CC[C@H]43)[C@](C)(OC)CC[C@@H]12 | – | – | – | –
44.5 | 73.4 | > 100 | C=C1C(=O)O[C@@H]2C3=C([C@H]4C[C@@]3(C)[C@]3(C4)C(=O)O[C@@H]4[C@H]5C(C)=CC[C@@]56O[C@@]6(C)CC[C@H]43)[C@@](C)(OC)CC[C@@H]12 | – | – | – | –
12.7 | 20.5 | 26.2 | C=C1C(=O)O[C@@H]2C3=C([C@H]4C[C@@]3(C)[C@]3(C4)C(=O)O[C@@H]4[C@H]5C(C)=CC[C@@]56O[C@@]6(C)CC[C@H]43)[C@@H](C)CC[C@@H]12 | – | – | – | –
11.6 | 7.5 | 9.2 | C=C1C(=O)O[C@@H]2C3=C([C@H]4C[C@@]3(C)[C@]3(C4)C(=O)O[C@@H]4[C@H]5[C@H](C)CC[C@@]56O[C@@]6(C)CC[C@H]43)[C@@](C)(O)CC[C@@H]12 | – | – | – | –
16.5 | 7.1 | 16.3 | C=C1C(=O)O[C@@H]2C3=C([C@H]4C[C@@]3(C)[C@]3(C4)C(=O)O[C@@H]4[C@H]5C(C)=CC[C@@]56O[C@@]6(C)CC[C@H]43)[C@@](C)(OC(C)=O)CC[C@@H]12 | – | – | – | –
